In US20260240873A1, “USE OF C[…] THE TREATMENT OF TUBEROUS SCLEROSIS COMPLEX” (GW Research Limited, priority 2019, published 2026):

How the values were obtained:
total seizures = test: Double-blind, randomized, placebo-controlled trial: total seizure count; type: in vivo, human; conditions: for Total seizure count, mean number of seizures per 28 days, treatment period: 16-week treatment period; for Total seizure count, mean number of seizures per 28 days, baseline period: baseline before treatment; for Reduction of seizures over the maintenance period (paragraph after the total seizure tables): 12-week maintenance period, placebo 30.1%
Protocol: (§1) The blinded phase of the study was a randomized, double-blind, parallel-group, 16-week comparison of two doses of CBD versus placebo. Patients completed a 1-week screening period and a 4-week baseline period before they were randomized to receive 25 mg/kg/day CBD, 50 mg/kg/day CBD or equivalent volumes of placebo. Randomization was stratified by age according to the following ranges: 1-6, 7-11, 12-17 years and 18+ years.
(§2) Patients began a 4-week dose escalation period, titrating up to their assigned dose, before continuing on a stable dose of blinded investigational medicinal product (IMP) for 12 weeks.
(§3) Patients were required to perform daily interactive voice response system (IVRS) telephone calls to record seizure information. They were also required to complete a paper diary daily with information about IMP and concomitant AED administration.
(§4) change in Caregiver Global Impression of Change (CGIC) or Subject Global Impression of Change (SGIC) score; and change in total seizures.
(§5) In addition to the TSC-associated seizures (focal motor seizures without impairment of consciousness or awareness; focal seizures with impairment of consciousness or awareness; focal seizures evolving to bilateral generalized convulsive seizures and generalized seizures (tonic-clonic, tonic, clonic or atonic) that are countable) the total seizure count was recorded in the trial.

[1] = Double-blind, randomized, placebo-controlled trial: safety and tolerability (adverse events, ALT); type: in vivo, human; conditions: for Patients with alanine aminotransferase (ALT) elevations >3 upper level of normal (ULN): none on placebo
Protocol: as §1
Safety and tolerability measures that were recorded included: adverse events; clinical laboratory parameters; 12-lead electrocardiogram (ECG); physical examination parameters (including height and weight); vital signs; Columbia-Suicide Severity Rating Scale (C-SSRS; 19+ years) or C-SSRS Children's (6-18 years) score, where applicable; number of inpatient hospitalizations due to epilepsy; abuse liability and effects on menstruation cycles (in females).

seizures [2] = conditions: mice; after pro-convulsant drugs or an electric current; cited from earlier work
seizures [3] = conditions: 200 mg/day pure CBD; four adult patients; cited from earlier work
generalized epilepsy = conditions: eight adult patients with generalized epilepsy; cited from earlier work
[4] = Double-blind, randomized, placebo-controlled trial: Subject/Caregiver Global Impression of Change; type: in vivo, human; conditions: for Subject/caregiver global impression of change: Much improved, number (%) / Subject/caregiver global impression of change: Much worse, number (%) / Subject/caregiver global impression of change: No change, number (%) / Subject/caregiver global impression of change: Slightly improved, number (%) / Subject/caregiver global impression of change: Slightly worse, number (%) / Subject/caregiver global impression of change: Very much worse, number (%) / Subject/caregiver global impression of change: Very much improved, number (%): data from last visit
Protocol: as §1, §4

TSC-associated seizures = test: Double-blind, randomized, placebo-controlled trial: TSC-associated seizure frequency; type: in vivo, human; conditions: for Mean number of TSC-associated seizures per 28 days, treatment period: 16-week treatment period, add-on to AEDs; for Mean number of TSC-associated seizures per 28 days, baseline period: 4-week baseline before treatment; for Reduction in TSC-associated seizures over the maintenance period: 12-week maintenance period, placebo 30%; for Patients who experienced a ≥50% reduction in seizures, number (%): placebo 17 (22.4%); for TSC-associated seizures, estimated ratio CBD/Placebo / TSC-associated seizures, percentage reduction CBD/Placebo: treatment period
Protocol: as §1, §2, §3
The primary endpoint was the change in number of TSC-associated seizures during the treatment period (maintenance and titration) compared to baseline in patients taking CBD compared with placebo.
as §5, with “TSC-associated” for “In addition to the TSC-associated”, “included: focal” for “(focal”, “countable.” for “countable) the total seizure count was recorded in the trial.”
Secondary endpoints included the number of patients considered treatment responders which was defined as those with a >50% reduction in TSC-associated seizure frequency;
Antiepileptic efficacy measures were also determined and these included: number of patients considered treatment responders defined as those with a ≥25%, ≥50%, ≥75% or 100% reduction in TSC-associated seizure frequency; number of patients experiencing a >25% worsening, −25 to +25% no change, 25-50% improvement, 50-75% improvement or >75% improvement in TSC-associated seizure frequency; change in number of TSC-associated seizure-free days; and change in number of ‘other’ seizures (absence, myoclonic, focal sensory and infantile/epileptic spasms).

seizures [5] = conditions: 200 mg/day pure CBD; twelve institutionalized adult patients; open label; cited from earlier work
[6] = CBD 25 mg/kg/day group (n = 75)
[7] = CBD 50 mg/kg/day group (n = 73)
[8] = CBD 50 mg/kg/day, treatment period, p-value 0.0018
[9] = CBD 25 mg/kg/day, p-value 0.0009
[10] = CBD 50 mg/kg/day, p-value 0.0018

## C=C(C)[C@@H]1CCC(C)=C[C@H]1c1c(O)cc(CCCCC)cc1O [CBD, cannabidiol]
Total seizures; CBD 25 mg/kg/day (n = 75)
  Total seizures, estimated ratio Treatment period/Baseline period: 0.519
  Total seizures, percentage reduction Treatment period/Baseline period: 48.1%
  Total seizure count, mean number of seizures per 28 days, treatment period: 28.0 per 28 days
Total seizures; [6]
  Total seizure count, mean number of seizures per 28 days, baseline period: 53.9 per 28 days
Total seizures; CBD 25 mg/kg/day, p=0.0007
  Reduction of seizures over the maintenance period (paragraph after the total seizure tables): 55%
Total seizures; CBD 25 mg/kg/day, treatment period, p-value 0.0013
  Total seizures, estimated ratio CBD/Placebo: 0.709
Total seizures; CBD 50 mg/kg/day (n = 73)
  Total seizures, estimated ratio Treatment period/Baseline period: 0.524
  Total seizures, percentage reduction Treatment period/Baseline period: 47.6%
  Total seizure count, mean number of seizures per 28 days, treatment period: 39.6 per 28 days
Total seizures; [7]
  Total seizure count, mean number of seizures per 28 days, baseline period: 75.7 per 28 days
Total seizures; CBD 50 mg/kg/day, p=0.0005
  Reduction of seizures over the maintenance period (paragraph after the total seizure tables): 55.9%
Total seizures; [8]
  Total seizures, estimated ratio CBD/Placebo: 0.716
  Total seizures, percentage reduction CBD/Placebo: 28.4%
Total seizures; both 25 and 50 mg/kg/day
  Total number of seizures (conclusion): significantly reduce
[1]; 50 mg/kg/day group compared to 25 mg/kg/day group
  Incidence of diarrhoea, vomiting, transaminase elevations, somnolence, and rash: higher in the 50 mg/kg/day group
[1]; CBD 25 mg/kg/day (n = 75)
  Treatment emergent adverse event, maximal severity Mild, number (%): 37 (49.3%)
  Treatment emergent adverse event, maximal severity Moderate, number (%): 26 (34.7%)
  Treatment emergent adverse event, maximal severity Severe, number (%): 7 (9.3%)
[1]; CBD 25 mg/kg/day
  Patients with alanine aminotransferase (ALT) elevations >3 upper level of normal (ULN): 12%
[1]; CBD 50 mg/kg/day (n = 73)
  Treatment emergent adverse event, maximal severity Mild, number (%): 29 (39.7%)
  Treatment emergent adverse event, maximal severity Moderate, number (%): 35 (47.9%)
  Treatment emergent adverse event, maximal severity Severe, number (%): 9 (12.3%)
[1]; CBD 50 mg/kg/day
  Patients with alanine aminotransferase (ALT) elevations >3 upper level of normal (ULN): 25%
[1]; patients on concomitant valproic acid and on the higher dose of CBD
  Rate of ALT elevations: higher rate of ALT elevations
[1]; patients receiving CBD, 25 or 50 mg/kg/day
  Most common adverse reactions (≥10% and greater than placebo): somnolence; decreased appetite; diarrhoea; vomiting; transaminase elevations; pyrexia; and infections
Seizures [2]
  Prevention of seizures: able to prevent seizures
Seizures [3]
  Seizure freedom: two of the four patients became seizure free
Generalized epilepsy
  Reduction of seizures: marked reduction of seizures in 4 of the patients
[4]; 25 mg/kg/day group
  Subject/caregiver's global impression of change (conclusion): significant efficacy
[4]; CBD 25 mg/kg/day
  Subject/caregiver global impression of change: Much improved, number (%): 12 (18.2%)
  Subject/caregiver global impression of change: Much worse, number (%): 2 (3.0%)
  Subject/caregiver global impression of change: No change, number (%): 14 (21.2%)
  Subject/caregiver global impression of change: Slightly improved, number (%): 23 (34.8%)
  Subject/caregiver global impression of change: Slightly worse, number (%): 4 (6.1%)
  Subject/caregiver global impression of change: Very much worse, number (%): 1 (1.5%)
[4]; CBD 25 mg/kg/day, overall p-value 0.0074
  Subject/caregiver global impression of change: Very much improved, number (%): 10 (15.2%)
[4]; CBD 50 mg/kg/day
  Subject/caregiver global impression of change: Much improved, number (%): 12 (18.2%)
  Subject/caregiver global impression of change: Much worse, number (%): 3 (4.5%)
  Subject/caregiver global impression of change: No change, number (%): 14 (21.2%)
  Subject/caregiver global impression of change: Slightly improved, number (%): 21 (31.8%)
  Subject/caregiver global impression of change: Slightly worse, number (%): 6 (9.1%)
  Subject/caregiver global impression of change: Very much worse, number (%): 1 (1.5%)
[4]; CBD 50 mg/kg/day, overall p-value 0.0580
  Subject/caregiver global impression of change: Very much improved, number (%): 9 (13.6%)
TSC-associated seizures; CBD 25 mg/kg/day
  Patients with complete seizure freedom (100% reduction in TSC-associated seizure frequency): 4 patients
TSC-associated seizures; CBD 25 mg/kg/day (n = 75)
  TSC-associated seizures, estimated ratio Treatment period/Baseline period: 0.514
  TSC-associated seizures, percentage reduction Treatment period/Baseline period: 48.6%
  Mean number of TSC-associated seizures per 28 days, treatment period: 26.5 per 28 days
TSC-associated seizures; [6]
  Mean number of TSC-associated seizures per 28 days, baseline period: 51.6 per 28 days
TSC-associated seizures; CBD 25 mg/kg/day, p=0.0004
  Reduction in TSC-associated seizures over the maintenance period: 55.8%
TSC-associated seizures; CBD 25 mg/kg/day, p=0.0692
  Patients who experienced a ≥50% reduction in seizures, number (%): 27 (36.0%) patients
TSC-associated seizures; [9]
  TSC-associated seizures, estimated ratio CBD/Placebo: 0.699
  TSC-associated seizures, percentage reduction CBD/Placebo: 30.1%
TSC-associated seizures; CBD 50 mg/kg/day
  Patients with complete seizure freedom (100% reduction in TSC-associated seizure frequency): 2 patients
TSC-associated seizures; CBD 50 mg/kg/day (n = 73)
  TSC-associated seizures, estimated ratio Treatment period/Baseline period: 0.525
  TSC-associated seizures, percentage reduction Treatment period/Baseline period: 47.5%
  Mean number of TSC-associated seizures per 28 days, treatment period: 34.9 per 28 days
TSC-associated seizures; [7]
  Mean number of TSC-associated seizures per 28 days, baseline period: 66.3 per 28 days
TSC-associated seizures; CBD 50 mg/kg/day, p=0.0005
  Reduction in TSC-associated seizures over the maintenance period: 55.8%
TSC-associated seizures; CBD 50 mg/kg/day, p=0.0245
  Patients who experienced a ≥50% reduction in seizures, number (%): 29 (39.2%) patients
TSC-associated seizures; [10]
  TSC-associated seizures, estimated ratio CBD/Placebo: 0.715
  TSC-associated seizures, percentage reduction CBD/Placebo: 28.5%
TSC-associated seizures; both 25 and 50 mg/kg/day
  Number of TSC-associated seizures (conclusion): significantly reduce
Seizures [5]
  Control of seizures: ineffective
